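Exposure lasted 48 hours, with cells grown in 96-well plates and compounds tested at five concentrations. GI50 is the concentration that inhibits growth by half.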 Active and inactive are the calls of the source. Cut-off read from the data, not from the text of the source: active = GI50 up to about 1.1 µM and inactive = higher.
How the values were obtained:
Test in all cases: NCI anticancer screen, dose series, 48 h
BT-549 = tested on: BT-549
CCRF-CEM = tested on: CCRF-CEM
COLO 205 = tested on: COLO 205
HCT-116 = tested on: HCT-116
HL-60 = tested on: HL-60
Hs-578T = tested on: Hs-578T
K562 = tested on: K562
MCF7 = tested on: MCF7
NCI-H23 = tested on: NCI-H23
NCI-H522 = tested on: NCI-H522
RPMI-8226 = tested on: RPMI-8226
SF-268 = tested on: SF-268
SK-MEL-5 = tested on: SK-MEL-5
SNB-19 = tested on: SNB-19
TK-10 = tested on: TK-10
U-251 = tested on: U-251
UACC-257 = tested on: UACC-257
NCI-H226 = tested on: NCI-H226
NCI-H460 = tested on: NCI-H460
SK-OV-3 = tested on: SK-OV-3

Measured: GI50

COc1ccccc1NC(=O)CC(=O)N1N=C(C)C(/N=N/c2ccc(C(=O)O)cc2)C1=O (centres undefined)
inactive: BT-549 > 100 µM | CCRF-CEM > 100 µM | COLO 205 > 100 µM | HCT-116 > 100 µM | HL-60 > 100 µM | Hs-578T > 100 µM | K562 > 100 µM | MCF7 > 100 µM | NCI-H23 > 100 µM | NCI-H522 > 100 µM | RPMI-8226 > 100 µM | SF-268 > 100 µM | SK-MEL-5 > 100 µM | SNB-19 > 100 µM | TK-10 > 100 µM | U-251 > 100 µM | UACC-257 > 100 µM

NC(=O)c1ccc(/N=N/O)nc1
inactive: BT-549 > 100 µM | CCRF-CEM > 100 µM | COLO 205 > 100 µM | HCT-116 > 100 µM | HL-60 > 100 µM | Hs-578T > 100 µM | K562 > 100 µM | MCF7 > 100 µM | NCI-H226 > 100 µM | NCI-H23 > 100 µM | NCI-H460 > 100 µM | NCI-H522 > 100 µM | SF-268 > 100 µM | SK-MEL-5 > 100 µM | SK-OV-3 > 100 µM | SNB-19 > 100 µM | TK-10 > 100 µM | U-251 > 100 µM | UACC-257 > 100 µM

COC(=O)c1c(O)c2c(c3c1OC(C)(C)CC3)OC(C)(C)CC2
inactive: BT-549 20 µM | CCRF-CEM 23 µM | COLO 205 15 µM | HCT-116 16.8 µM | HL-60 15.1 µM | Hs-578T 20.8 µM | K562 25.1 µM | MCF7 18.2 µM | NCI-H226 19.3 µM | NCI-H23 20.1 µM | NCI-H460 22.3 µM | NCI-H522 15.8 µM | SF-268 22.9 µM | SK-MEL-5 15 µM | SK-OV-3 27.3 µM | SNB-19 18.2 µM | TK-10 > 10 µM | U-251 15.2 µM | UACC-257 20.4 µM

CCOC(=O)C(C(=O)OCC)C(=O)c1ccccc1C(=O)c1ccccc1
inactive: BT-549 33.4 µM | CCRF-CEM 96.2 µM | COLO 205 > 100 µM | HCT-116 59 µM | HL-60 > 100 µM | Hs-578T 84.7 µM | K562 > 100 µM | MCF7 > 100 µM | NCI-H226 > 100 µM | NCI-H23 > 100 µM | NCI-H460 > 100 µM | NCI-H522 > 100 µM | SF-268 > 100 µM | SK-MEL-5 97.1 µM | SK-OV-3 > 100 µM | SNB-19 > 100 µM | TK-10 > 100 µM | U-251 > 100 µM | UACC-257 > 100 µM
